Our source for the melting point values is US20050032873A1, “3-Amino chroman and 2-amino tetralin derivatives” (Wyeth, priority 2003, published 2005).

The structures appear in SMILES notation. Counter-ions that a name gives are not always drawn.

For `NC(=O)c1ccc(F)c2c1CC(NCCCc1c[nH]c3ccc(Cl)cc13)CO2` (stereo not shown) (as salt: hydrochloride) [Compound 114, 3-{[3-(5-chloro-1H-indol-3-yl)propyl]amino}-8-fluorochromane-5-carboxamide], the melting point (in general, the temperature of the solid-liquid transition) is 218 to 221 °C. The value for `CC(C1CC1)N(CCCc1c[nH]c2ccc(F)cc12)C1COc2c(F)ccc(C(N)=O)c2C1` (stereo not shown) (as salt: hydrochloride) [Compound 6, 3-{(1-cyclopropylethyl)[3-(5-fluoro-1H-indol-3-yl)propyl]amino}-8-fluorochromane-5-carboxamide] was 124 °C (dec.).

For the molecule `CCCN(CCCc1c[nH]c2ccc(F)cc12)C1COc2c(F)ccc(C(N)=O)c2C1` (stereo not shown) (as salt: hydrochloride) [Compound 2, 8-fluoro-3-{[3-(5-fluoro-1H-indol-3-yl)propyl](propyl)amino}chromane-5-carboxamide], the melting point is 125 °C (dec.). Next, `CNC(=O)c1ccc(F)c2c1CC(N(CCCCc1c[nH]c3ccc(F)cc13)C1CCC1)CO2` (stereo not shown) (as salt: hydrochloride) [Compound 95, 3-{cyclobutyl[4-(5-fluoro-1H-indol-3-yl)butyl]amino}-8-fluoro-N-methylchromane-5-carboxamide]: 123 °C (dec.); `CCN(CCCCc1c[nH]c2ccc(F)cc12)C1COc2c(F)ccc(C(N)=O)c2C1` (stereo not shown) (as salt: hydrochloride) [Compound 80, 3-{ethyl[4-(5-fluoro-1H-indol-3-yl)butyl]amino}-8-fluorochromane-5-carboxamide]: 110 °C (dec.). For the molecule `NC(=O)c1ccc(F)c2c1CC(N(CCCc1c[nH]c3ccc(F)cc13)CC1CC1)CO2` (single isomer, unassigned; (-)) (as salt: hydrochloride) [Compound 5a, (−)-3-{(cyclopropylmethyl)[3-(5-fluoro-1H-indol-3-yl)propyl]amino}-8-fluorochromane-5-carboxamide], the melting point was 123 °C (dec.). Turning to `NC(=O)c1ccc(F)c2c1OCC(N(CCCCc1c[nH]c3ccc(F)cc13)C1CCC1)C2` (stereo not shown) (as salt: hydrochloride) [Compound 126, 3-{cyclobutyl[4-(5-fluoro-1H-indol-3-yl)butyl]amino}-5-fluorochromane-8-carboxamide], the melting point was 130 °C (dec.). With `CCN(CCCc1c[nH]c2c(OC)cccc12)C1COc2c(F)ccc(C(N)=O)c2C1` (stereo not shown) (as salt: hydrochloride) [Compound 101, 3-{ethyl[3-(7-methoxy-1H-indol-3-yl)propyl]amino}-8-fluorochromane-5-carboxamide], the melting point is 148 to 153 °C (dec.). On to `COc1cccc2c1CC(N(CCCc1c[nH]c3ccc(C#N)cc13)CC1CC1)CO2` (stereo not shown) (as salt: hydrochloride) [Compound 45, 3-{3-[(cyclopropylmethyl)(5-methoxy-3,4-dihydro-2H-chromen-3-yl)amino]propyl}-1H-indole-5-carbonitrile], for which the melting point is 123 to 127 °C (dec.). The value for `NC(=O)c1ccc(F)c2c1CC(N(CCCc1c[nH]c3cc(F)ccc13)C1CCC1)CO2` (stereo not shown) (as salt: hydrochloride) [Compound 53, 3-{cyclobutyl[3-(6-fluoro-1H-indol-3-yl)propyl]amino}-8-fluorochromane-5-carboxamide] was 126 °C (dec.); that for `COc1cccc2c1CC(N(CCCc1c[nH]c3ccc(F)cc13)C1CC1)CO2` (stereo not shown) (as salt: hydrochloride) [Compound 41, N-cyclopropyl-N-[3-(5-fluoro-1H-indol-3-yl)propyl]-N-(5-methoxy-3,4-dihydro-2H-chromen-3-yl)amine] was 115 °C (dec.). Turning to `COC(=O)c1ccc(F)c2c1CC(NCCCc1c[nH]c3ccc(F)cc13)CO2` (stereo not shown) (as salt: hydrochloride) [Compound 10, Methyl 8-fluoro-3-{[3-(5-fluoro-1H-indol-3-yl)propyl]amino}chromane-5-carboxylate], the melting point was 219 °C (dec.). As for `COc1ccc2[nH]cc(CCCN(C3CCC3)C3COc4c(F)ccc(C(N)=O)c4C3)c2c1` (stereo not shown) (as salt: hydrochloride) [Compound 107, 3-{cyclobutyl[3-(5-methoxy-1H-indol-3-yl)propyl]amino}-8-fluorochromane-5-carboxamide], the melting point was 151 to 158 °C (dec.). The value for `NC(=O)c1ccc(F)c2c1CC(NCCCc1c[nH]c3c(Cl)cccc13)CO2` (stereo not shown) (as salt: hydrochloride) [Compound 109, 3-{[3-(7-chloro-1H-indol-3-yl)propyl]amino}-8-fluorochromane-5-carboxamide] was 222 to 224 °C.

For `CCN(CCCCc1c[nH]c2ccc(F)cc12)C1COc2c(C(N)=O)ccc(F)c2C1` (stereo not shown) (as salt: hydrochloride) [Compound 127, 3-{ethyl[4-(5-fluoro-1H-indol-3-yl)butyl]amino}-5-fluorochromane-8-carboxamide], the melting point was 112 °C (dec.). Consider `NC(=O)c1ccc(F)c2c1CC(NCCCCc1c[nH]c3ccc(F)cc13)CO2` (stereo not shown) (as salt: hydrochloride) [Compound 79, 8-fluoro-3-{[4-(5-fluoro-1H-indol-3-yl)butyl]amino}chromane-5-carboxamide], for which the melting point is 52 °C (dec.). The value for `N#Cc1ccc2[nH]cc(CCCN(C3CCC3)[C@H]3COc4c(F)ccc(C(N)=O)c4C3)c2c1` (as salt: hydrochloride) [Compound 97b, (3R)-3-[[3-(5-cyano-1H-indol-3-yl)propyl](cyclobutyl)amino]-8-fluorochromane-5-carboxamide] was 166 to 171 °C (dec.); that for `COC(=O)c1ccc(F)c2c1CC(N(CCCc1c[nH]c3ccc(F)cc13)C1CCC1)CO2` (stereo not shown) (as salt: hydrochloride) [Compound 11, Methyl 3-{cyclobutyl[3-(5-fluoro-1H-indol-3-yl)propyl]amino}-8-fluorochromane-5-carboxylate] was 110 °C (dec.); that for `CCCN(CCCc1c[nH]c2c(F)cc(F)cc12)C1COc2c(C(N)=O)ccc(F)c2C1` (stereo not shown) (as salt: hydrochloride) [Compound 129, 3-[[3-(5,7-difluoro-1H-indol-3-yl)propyl](propyl)amino]-5-fluorochromane-8-carboxamide] was 130 °C (dec.). The value for `NC(=O)c1ccc(F)c2c1CC(NCCCc1c[nH]c3ccc(F)cc13)CO2` (stereo not shown) (as salt: hydrochloride) [Compound 1, 8-fluoro-3-{[3-(5-fluoro-1H-indol-3-yl)propyl]amino}chromane-5-carboxamide] was 122 °C (dec.). As for `COC(=O)c1ccc(F)c2c1C[C@@H](N(CCCCc1c[nH]c3ccc(F)cc13)C1CCC1)CO2` (as salt: hydrochloride) [Compound 58b, Methyl (3R)-3-{cyclobutyl[4-(5-fluoro-1H-indol-3-yl)butyl]amino}-8-fluorochromane-5-carboxylate], the melting point is 209 °C (dec.). The value for `CNC(=O)c1ccc(F)c2c1CC(N(CCc1c[nH]c3ccc(F)cc13)CC1CC1)CO2` (stereo not shown) (as salt: hydrochloride) [Compound 86, 3-{(cyclopropylmethyl)[2-(5-fluoro-1H-indol-3-yl)ethyl]amino}-8-fluoro-N-methylchromane-5-carboxamide] was 138 °C (dec.); that for `NC(=O)c1ccc(F)c2c1CC(N(CCCc1c[nH]c3c(Cl)cccc13)CC1CC1)CO2` (stereo not shown) (as salt: hydrochloride) [Compound 112, 3-[[3-(7-chloro-1H-indol-3-yl)propyl](cyclopropylmethyl)amino]-8-fluorochromane-5-carboxamide] was 147 to 155 °C (dec.). The value for `COc1ccc2[nH]cc(CCCN(CC3CC3)C3COc4c(F)ccc(C(N)=O)c4C3)c2c1` (stereo not shown) (as salt: hydrochloride) [Compound 108, 3-{(cyclopropylmethyl)[3-(5-methoxy-1H-indol-3-yl)propyl]amino}-8-fluorochromane-5-carboxamide] was 148 to 154 °C (dec.). As for `CCCNC(=O)c1ccc(F)c2c1CC(N(CCCc1c[nH]c3ccc(F)cc13)C1CCC1)CO2` (stereo not shown) (as salt: hydrochloride) [Compound 61, 3-{cyclobutyl[3-(5-fluoro-1H-indol-3-yl)propyl]amino}-8-fluoro-N-propylchromane-5-carboxamide], the melting point is 67 °C (dec.). The value for `CNC(=O)c1ccc(F)c2c1CC(NCCc1c[nH]c3ccc(F)cc13)CO2` (stereo not shown) (as salt: hydrochloride) [Compound 84, 8-fluoro-3-{[2-(5-fluoro-1H-indol-3-yl)ethyl]amino}-N-methylchromane-5-carboxamide] was 148 °C (dec.).

On to `CCCN(CCCc1c[nH]c2ccc(F)cc12)C1COc2c(C(N)=O)ccc(F)c2C1` (stereo not shown) (as salt: hydrochloride) [Compound 120, 5-fluoro-3-[[3-(5-fluoro-1H-indol-3-yl)propyl](propyl)amino]chromane-8-carboxamide], for which the melting point is 123 °C (dec.). On to `CCCCCN(CCCc1c[nH]c2ccc(F)cc12)C1COc2c(F)ccc(C(N)=O)c2C1` (stereo not shown) (as salt: hydrochloride) [Compound 71, 8-fluoro-3-[[3-(5-fluoro-1H-indol-3-yl)propyl](pentyl)amino]chromane-5-carboxamide], for which the melting point is 128 °C (dec.). Consider `O=C(NC1CCCCC1)c1ccc(F)c2c1CC(N(CCCc1c[nH]c3ccc(F)cc13)C1CCC1)CO2` (stereo not shown) (as salt: hydrochloride) [Compound 67, 3-{cyclobutyl[3-(5-fluoro-1H-indol-3-yl)propyl]amino}-N-cyclohexyl-8-fluorochromane-5-carboxamide], for which the melting point was 134 °C (dec.).

For `NC(=O)c1ccc(F)c2c1OCC(N(CCCc1c[nH]c3ccc(F)cc13)CC1CC1)C2` (stereo not shown) (as salt: hydrochloride) [Compound 121, 3-{(cyclopropylmethyl)[3-(5-fluoro-1H-indol-3-yl)propyl]amino}-5-fluorochromane-8-carboxamide], the melting point was 123 °C (dec.).

For `CCCN(CCCCc1c[nH]c2ccc(F)cc12)C1COc2c(F)ccc(C(N)=O)c2C1` (stereo not shown) (as salt: hydrochloride) [Compound 81, 8-fluoro-3-[[4-(5-fluoro-1H-indol-3-yl)butyl](propyl)amino]chromane-5-carboxamide], the melting point was 115 °C (dec.).
